Laboratory results published in patent US8921267B2, “Safening 6-(trisubstituted phenyl)-4-amino-2-pyridinecarboxylate herbicide injury on cereal crops” (Dow AgroSciences LLC, priority 2008, dated 2014).
Counter-ions that a name gives are not always drawn.

How the values were obtained:
Format in all cases: in vivo
[1] = system: barley (Hordeum vulgare L; HORVS); assay: Postemergence herbicidal safening, greenhouse, visual injury: barley
Method: (§1) Evaluation of Postemergence Herbicidal Safening in Cereal Crops
(§2) Seeds of the desired test plant species were planted in Sun Gro MetroMix® 306 planting mixture, which typically has a pH of 6.0 to 6.8 and an organic matter content of about 30 percent, in plastic pots with a surface area of 103.2 square centimeters (cm^2). When required to ensure good germination and healthy plants, a fungicide treatment and/or other chemical or physical treatment was applied. The plants were grown for 7-36 days (d) in a greenhouse with an approximate 14-hour (h) photoperiod which was maintained at about 18° C. during the day and 17° C. during the night. Nutrients and water were added on a regular basis and supplemental lighting was provided with overhead metal halide 1000-Watt lamps as necessary. The plants were employed for testing when they reached the second or third true leaf stage.
(§3) Weighed amounts of esters (methyl) or salts (TEA [triethylammonium], K [potassium]) of 4-amino-3-chloro-6-(4-chloro-2-fluoro-3-methoxyphenyl)pyridine-2-carboxylic acid (Compound 1) were dissolved in a volume of 97:3 volume/volume (v/v) acetone/dimethylsulfoxide (DMSO) to obtain stock solutions. […] The concentrated stock solutions were diluted with an aqueous mixture of 1.5% v/v of Agri-dex crop oil concentrate to provide the appropriate application rates. Compound requirements are based upon a 12 mL application volume at a rate of 187 liters per hectare (L/ha). Stocks solutions of the safeners were prepared following the same procedure. Spray solutions of the safeners and experimental compound mixtures were prepared by adding the stock solutions to the appropriate amount of dilution solution to form a 12 mL spray solution with active ingredients in two-way combinations. Formulated compounds were applied to the plant material with an overhead Mandel track sprayer equipped with 8002E nozzles calibrated to deliver 187 L/ha over an application area of 0.503 square meters (m^2) at a spray height of 18 inches (43 centimeters (cm)) above average plant canopy. Control plants were sprayed in the same manner with the solvent blank.
(§4) The treated plants and control plants were placed in a greenhouse as described above and watered by sub-irrigation to prevent wash-off of the test compounds. After 20-22 d, the condition of the test plants as compared with that of the control plants was determined visually and scored on a scale of 0 to 100 percent where 0 corresponds to no injury and 100 corresponds to complete kill.
(§5) Colby's equation was used to determine the herbicidal effects expected from the mixtures (Colby, S. R. Calculation of the synergistic and antagonistic response of herbicide combinations. Weeds 1967, 15, 20-22.).
(§6) The following equation was used to calculate the expected activity of mixtures containing two active ingredients, A and B: Expected=A+B−(A×B/100)
(§7) A=observed efficacy of active ingredient A at the same concentration as used in the mixture.
(§8) B=observed efficacy of active ingredient B at the same concentration as used in the mixture.

[2] = system: wild pansy (Viola tricolor L; VIOTR); assay: Postemergence herbicidal activity, greenhouse, visual injury: wild pansy; parameters: key: visual injury, 0–100%: 0 = no injury, 100 = complete kill
Method: as §1, §2, §3, §4, §5, §6, §7, §8

[3] = system: scented mayweed (Matricaria chamomila L; MATCH); assay: Postemergence herbicidal activity, greenhouse, visual injury: scented mayweed; parameters: key: % visual injury: 0 = no injury, 100 = complete kill
Method: as §1, §2, §3, §4, §5, §6, §7, §8

[4] = system: wheat (Triticum aestivum L; TRZAS); assay: Postemergence herbicidal safening, greenhouse, visual injury: wheat
Method: as §1, §2, §3, §4, §5, §6, §7, §8

[5] = system: cleavers (Galium aparine L; GALAP); assay: Postemergence herbicidal activity, greenhouse, visual injury: cleavers; parameters: key: visual injury, 0–100%: 0 = no injury, 100 = complete kill
Method: as §1, §2, §3, §4, §5, §6, §7, §8

[6] = system: chickweed (Stellaria media L; STEME); assay: Postemergence herbicidal activity, greenhouse, visual injury: chickweed; parameters: key: visual injury, 0–100%: 0 = no injury, 100 = complete kill
Method: as §1, §2, §3, §4, §5, §6, §7, §8

[7] = system: corn poppy (Papaver rhoeas L; PAPRH); assay: Postemergence herbicidal activity, greenhouse, visual injury: corn poppy
Method: as §1, §2, §3, §4, §5, §6, §7, §8

[8] = system: bird's-eye speedwell (Veronica persica L; VERPE); assay: Postemergence herbicidal activity, greenhouse, visual injury: bird's-eye speedwell; parameters: key: visual injury, 0–100%: 0 = no injury, 100 = complete kill
Method: as §1, §2, §3, §4, §5, §6, §7, §8

[9] = system: wild buckwheat (Polygonum convolvulus L; POLCO); assay: Postemergence herbicidal activity, greenhouse, visual injury: wild buckwheat
Method: as §1, §2, §3, §4, §5, §6, §7, §8

[10] = system: Russian thistle (Salsola iberica L; SASKR); assay: Postemergence herbicidal activity, greenhouse, visual injury: Russian thistle; parameters: key: visual injury, 0–100%: 0 = no injury, 100 = complete kill
Method: as §1, §2, §3, §4, §5, §6, §7, §8

[11] = system: purple deadnettle (Lamium purpureum L; LAMPU); assay: Postemergence herbicidal activity, greenhouse, visual injury: purple deadnettle; parameters: key: visual injury, 0–100%: 0 = no injury, 100 = complete kill
Method: as §1, §2, §3, §4, §5, §6, §7, §8

[12] = system: kochia (Kochia scoparia L; KCHSC); assay: Postemergence herbicidal activity, greenhouse, visual injury: kochia; parameters: key: % visual injury: 0 = no injury, 100 = complete kill
Method: as §1, §2, §3, §4, §5, §6, §7, §8

[13] = Compound 1 K salt 8.75 g/ha alone
[14] = Compound 1 K salt 17.5 g/ha alone
[15] = Compound 1 K salt 35 g/ha alone

COc1c(Cl)ccc(-c2cc(N)c(Cl)c(C(=O)[O-])n2)c1F.[K+] [1 K salt]
HORVS Ob (Observed values) [1, 13]: 1.7 | HORVS Ob (Observed values) [1, 14]: 3.3 | HORVS Ob (Observed values) [1, 15]: 6.7 | VIOTR Ob (Observed values) [2, 13]: 20 | VIOTR Ob (Observed values) [2, 14]: 48 | VIOTR Ob (Observed values) [2, 15]: 42 | MATCH Ob (Observed values) [3, 13]: 50 | MATCH Ob (Observed values) [3, 14]: 62 | MATCH Ob (Observed values) [3, 15]: 57 | TRZAS Ob (Observed values) [4, 13]: 5 | TRZAS Ob (Observed values) [4, 14]: 8 | TRZAS Ob (Observed values) [4, 15]: 27

COc1c(Cl)ccc(-c2cc(N)c(Cl)c(C(=O)O)n2)c1F [Compound 1 TEA salt, 4-amino-3-chloro-6-(4-chloro-2-fluoro-3-methoxyphenyl)pyridine-2-carboxylic acid]
HORVS Ob ([1]; applied alone at 140 g/ha): 16% | HORVS Ob ([1]; applied alone, 140 g/ha): 16% | GALAP Ob ([5]; applied alone at 140 g/ha): 100% | GALAP Ob ([5]; applied alone, 140 g/ha): 100 | VIOTR Ob ([2]; applied alone at 140 g/ha): 69% | VIOTR Ob ([2]; applied alone, 140 g/ha): 69 | STEME Ob ([6]; applied alone at 140 g/ha): 94% | STEME Ob ([6]; applied alone, 140 g/ha): 94 | PAPRH Ob ([7]; applied alone at 140 g/ha): 100% | PAPRH Ob ([7]; applied alone, 140 g/ha): 100 | VERPE Ob ([8]; applied alone at 140 g/ha): 85% | VERPE Ob ([8]; applied alone, 140 g/ha): 85 | POLCO Ob ([9]; applied alone at 140 g/ha): 100% | POLCO Ob ([9]; applied alone, 140 g/ha): 100 | SASKR Ob ([10]; applied alone at 140 g/ha): 88% | SASKR Ob ([10]; applied alone, 140 g/ha): 88 | LAMPU Ob ([11]; applied alone at 140 g/ha): 99% | LAMPU Ob ([11]; applied alone, 140 g/ha): 99 | MATCH Ob ([3]; applied alone at 140 g/ha): 80% | MATCH Ob ([3]; applied alone, 140 g/ha): 80 | KCHSC Ob ([12]; applied alone at 140 g/ha): 94% | KCHSC Ob ([12]; applied alone, 140 g/ha): 94 | TRZAS Ob ([4]; applied alone at 140 g/ha): 26% | TRZAS Ob ([4]; applied alone, 140 g/ha): 26%

Clc1cc(Cl)nc(-c2ccccc2)n1 [Fenclorim]
GALAP Ob ([5]; applied alone, 17.5 g/ha): 0 | GALAP Ob ([5]; applied alone, 35 g/ha): 0 | GALAP Ob ([5]; applied alone, 70 g/ha): 0 | GALAP Ob ([5]; applied alone, 140 g/ha): 0 | VIOTR Ob ([2]; applied alone, 17.5 g/ha): 0 | VIOTR Ob ([2]; applied alone, 35 g/ha): 0 | VIOTR Ob ([2]; applied alone, 70 g/ha): 0 | VIOTR Ob ([2]; applied alone, 140 g/ha): 0 | STEME Ob ([6]; applied alone, 17.5 g/ha): 0 | STEME Ob ([6]; applied alone, 35 g/ha): 0 | STEME Ob ([6]; applied alone, 70 g/ha): 0 | STEME Ob ([6]; applied alone, 140 g/ha): 0 | PAPRH Ob ([7]; applied alone, 17.5 g/ha): 0 | PAPRH Ob ([7]; applied alone, 35 g/ha): 0 | PAPRH Ob ([7]; applied alone, 70 g/ha): 0 | PAPRH Ob ([7]; applied alone, 140 g/ha): 0 | VERPE Ob ([8]; applied alone, 17.5 g/ha): 0 | VERPE Ob ([8]; applied alone, 35 g/ha): 0 | VERPE Ob ([8]; applied alone, 70 g/ha): 0 | VERPE Ob ([8]; applied alone, 140 g/ha): 0 | POLCO Ob ([9]; applied alone, 17.5 g/ha): 0 | POLCO Ob ([9]; applied alone, 35 g/ha): 0 | POLCO Ob ([9]; applied alone, 70 g/ha): 0 | POLCO Ob ([9]; applied alone, 140 g/ha): 0 | SASKR Ob ([10]; applied alone, 17.5 g/ha): 0 | SASKR Ob ([10]; applied alone, 35 g/ha): 0 | SASKR Ob ([10]; applied alone, 70 g/ha): 0 | SASKR Ob ([10]; applied alone, 140 g/ha): 0 | LAMPU Ob ([11]; applied alone, 17.5 g/ha): 0 | LAMPU Ob ([11]; applied alone, 35 g/ha): 0 | LAMPU Ob ([11]; applied alone, 70 g/ha): 0 | LAMPU Ob ([11]; applied alone, 140 g/ha): 0 | MATCH Ob ([3]; applied alone, 17.5 g/ha): 0 | MATCH Ob ([3]; applied alone, 35 g/ha): 0 | MATCH Ob ([3]; applied alone, 70 g/ha): 0 | MATCH Ob ([3]; applied alone, 140 g/ha): 0 | KCHSC Ob ([12]; applied alone, 17.5 g/ha): 0 | KCHSC Ob ([12]; applied alone, 35 g/ha): 0 | KCHSC Ob ([12]; applied alone, 70 g/ha): 0 | KCHSC Ob ([12]; applied alone, 140 g/ha): 0
